Here are results for four compounds from patent US11510980B2, “Brartemicin analogues” (VICTORIA LINK LTD, priority 2017, dated 2022).

The test system of one assay is wild-type GM-CSF BMDMs. In words: Cytokine/chemokine production by wild-type GM-CSF BMDMs on ligand-coated plates. The format is cell-based, C57BL/6 mice. The settings on record: wild-type BMDMs, coated plates 0.1 or 1 nmol/well, 24 hours, ELISA. The protocol:
(§1) Preparation of ligand-coated plates: Brartemicin analogues 9a-9i, TDM (Carbosynth, Sigma Aldrich), and TDB^14 were dissolved in CHCl3:MeOH (2:1, 1 mM), diluted in isopropanol ([…]) and added to 96-well plates (20 μL/well). The solvents were evaporated and the coated plates were used immediately.
Murine bone-marrow derived macrophages: For the preparation of murine bone-marrow derived macrophages, bone marrow cells were collected from the tibias and femurs of C57BL/6 mice and cultured (250,000 cells/mL) in complete RPMI media [RPMI-1640 (Gibco) with 10% heat inactivated fetal bovine serum (Gibco), 100 unit/mL penicillin-streptomycin (Gibco) and 2 mM Glutamax (Gibco)] supplemented with 50 ng/mL GM-CSF (clone X63/GM-CSF murine cells). Cells were incubated at 37° C. (5% CO2) for 8 days (cells fed by replacing half the media on days 3 and 6). On day 8, all media was removed and the cells were washed with Dulbecco's Phosphate-Buffered Saline (DPBS, Gibco) to remove any loosely-adherent cells. The BMDMs were harvested with StemPro Acutase (1 mL/well, 15 minutes at room temperature, Gibco) and seeded onto a pre-coated 96-well plate. The supernatant was collected and analysed for cytokine/chemokine production after 24 hours.
Cytokine analysis: IL-1β, IFN-γ, IL-6, TNF-α (BD Biosciences), IL-17, and MIP-2 (R&D) levels were determined via sandwich ELISA according to the manufacturer's instructions.
First, the ability of the compounds to activate GM-CSF BMDMs was determined by monitoring the secretion of the inflammatory cytokines TNF, IL-6, and IL-1β and the chemokine, MIP-2, in a ligand-coated plate assay (FIG. 2).
To gain insight into the capacity of the 2G-series of brartemicin analogues to induce an inflammatory immune response, the analogues were then screened for their ability to activate WT and Mincle^−/− BMDMs, with cellular activation being determined by the measurement of IL-1B using ELISA (FIG. 6).
In general terms: ELISA stands for enzyme-linked immunosorbent assay.

A further assay addresses T1, mMincle-Ig (Mus musculus, UniProt Q9R0Q8).
T1 construct: using soluble Mincle-Ig fusion-proteins; made in house
T1 sequence (Q9R0Q8 46-214 limits assumed): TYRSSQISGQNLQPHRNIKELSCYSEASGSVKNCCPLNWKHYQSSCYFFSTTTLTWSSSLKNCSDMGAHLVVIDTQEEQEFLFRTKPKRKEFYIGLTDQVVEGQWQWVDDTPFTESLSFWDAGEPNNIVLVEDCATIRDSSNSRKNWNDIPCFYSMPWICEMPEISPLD
The assay is described as follows: In vitro Mincle binding assay (ELISA) with mMincle-Ig fusion protein. Further details: species or system murine. The settings on record: plate-coated ligand 0.1 nmol/well. The protocol:
as §1
(§2) In vitro Mincle binding assay: The preparation of mMincle- and hMincle-Ig fusion proteins have been previously described. Plate-coated glycolipids 9a-i, TDB, and TDM were incubated with hMincle-Ig, mMincle-Ig, or hIgG1-Fc (Ig) [3 μg/mL in binding buffer (20 mM Tris-HCl, 150 mM NaCl, 1 mM CaCl2), 2 mM MgCl2, pH 7.0)]. Detection of bound protein was achieved via incubation with anti-hIgG-HRP followed by the addition of a colorimetric substrate and measurement of OD at 450 nm. Background was accounted for by subtracting the hIgG1-Fc OD450 values from fusion protein OD450 values
(§3) The synthesised brartemicin analogues prepared in Example 1 were first tested for their ability to bind to both human and murine Mincle in an enzyme-linked immunosorbent assay (ELISA) using soluble Mincle-Ig fusion-proteins (FIG. 1a).

In a further assay the target is T2, mMincle+FcRγ (Mus musculus, UniProt Q9R0Q8).
T2 construct: expressed in transfected cells; host or cells: 2B4-NFAT-GFP reporter cells
T2 sequence (Q9R0Q8 1-214): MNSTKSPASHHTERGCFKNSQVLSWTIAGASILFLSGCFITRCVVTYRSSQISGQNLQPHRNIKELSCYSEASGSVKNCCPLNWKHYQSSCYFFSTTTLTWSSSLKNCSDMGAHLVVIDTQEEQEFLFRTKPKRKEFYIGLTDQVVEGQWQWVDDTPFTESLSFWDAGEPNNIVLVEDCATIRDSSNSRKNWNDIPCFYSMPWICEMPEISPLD
T2 sequence (P20491 19-86 partner): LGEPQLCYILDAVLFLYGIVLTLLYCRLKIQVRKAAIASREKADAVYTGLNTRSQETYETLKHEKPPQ
In words: 2B4-NFAT-GFP reporter cells expressing mMincle+FcRγ. The format is cell-based, murine. To be noted: ligand-coated plates 0.01, 0.1 or 1 nmol/well, 18 hours. On the procedure:
as §1
(§4) 2B4-NFAT-GFP reporter cells: 2B4-NFAT-GFP reporter cells expressing mMincle+FcRγ, hMincle+FcRγ, or FcRγ only have been previously described. […] The reporter cells were harvested, stained with propidium iodide, and analysed for NFAT-GFP expression using flow cytometry (FACS Calibur).
(§5) To determine whether the Mincle binding observed in Example 1 correlated with cellular activation, nuclear factor of activated T cells (NFAT)-green fluorescent protein (GFP) reporter cells expressing mMincle or hMincle coupled to FcRγ were stimulated using plates coated with TDM, TDB, brartemicin (9i), or analogues 9a-9h.
(§6) Activation of the reporter cells was measured through the production of GFP, which was monitored by flow cytometry (FIGS. 1b and 3c).
(§7) With the compounds 43a-h in hand, the ability of these analogues to bind and signal through Mincle was assessed (FIG. 5). Accordingly, NFAT-GFP reporter cells expressing mMincle+FcRγ, hMincle+FcRγ, or FcRγ-only were stimulated with the 2G-brartemicin analogues 43a-h, TDB, iPrOH, or the p-OC18H37 substituted analogue, 9f. Reporter cell activation was measured by the production of NFAT-GFP, which was analysed by flow cytometry.

Another assay concerns the target T3, hMincle-Ig (Homo sapiens, UniProt Q9ULY5).
T3 construct: using soluble Mincle-Ig fusion-proteins; made in house
T3 sequence (Q9ULY5 41-219 limits assumed): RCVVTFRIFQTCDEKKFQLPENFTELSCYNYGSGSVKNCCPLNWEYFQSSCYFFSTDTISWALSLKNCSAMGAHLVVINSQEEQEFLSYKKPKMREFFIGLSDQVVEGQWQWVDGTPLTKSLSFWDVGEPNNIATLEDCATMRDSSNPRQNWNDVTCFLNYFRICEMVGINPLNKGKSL
The assay is described as follows: In vitro Mincle binding assay (ELISA) with hMincle-Ig fusion protein. The settings on record: plate-coated ligand 0.1 nmol/well. The protocol:
as §1, §2, §3

The next assay deals with T4, hMincle+FcRγ (Homo sapiens, UniProt Q9ULY5).
T4 construct: expressed in transfected cells; host or cells: 2B4-NFAT-GFP reporter cells
T4 sequence (Q9ULY5 1-219): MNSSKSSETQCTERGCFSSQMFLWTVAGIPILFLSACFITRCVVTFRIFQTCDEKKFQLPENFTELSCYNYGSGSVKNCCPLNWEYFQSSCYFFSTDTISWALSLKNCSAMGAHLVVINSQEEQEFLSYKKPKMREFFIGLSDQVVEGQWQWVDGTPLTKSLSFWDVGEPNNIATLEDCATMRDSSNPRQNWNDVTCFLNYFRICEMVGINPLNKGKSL
In words: 2B4-NFAT-GFP reporter cells expressing hMincle+FcRγ. The format is cell-based. To be noted: ligand-coated plates 0.01, 0.1 or 1 nmol/well, 18 hours. On the procedure:
as §1, §4, §5, §6, §7

A further assay relates to C57BL/6 mice. In words: Delayed-type hypersensitivity immunisation with OVA in oil-in-water emulsion. The format is in vivo. The protocol:
Delayed-type hypersensitivity: Mice were sensitised by subcutaneous injection with oil-in-water emulsions (mineral oil/Tween-80/PBS, 9:1:90, v/v/v) containing OVA only (200 μg), OVA+TDB (OVA=200 μg, TDB=0.3 μmol), OVA+9a (OVA=200 μg, 9a=0.3 μmol) or no OVA. After seven days, the mice were challenged with OVA (100 μg/footpad) and after a further seven days, the mice were sacrificed and their spleens harvested. For in vitro restimulation, splenocytes were restimulated with OVA and analysed for spenocyte number (measured at 450 nm after 3 hours, Cell Count Reagent SF, Nacalai Tesque Inc.), IFN-γ production, and IL-17 production. Footpad swelling was measured using a venier caliper pre-challenge, 24 hours post-challenge, and 48 hours post-challenge. Sera were collected from each mouse on days 0, 7, and 14 and analysed for OVA-specific antibody titers by ELISA using HRP coupled goat anti-mouse IgG (GE Health-care), IgG1, IgG2b, IgG2c, and IgG3 (SouthernBiotec). EC50 were defined by plotting the absorbance at 450 nm against log of serum concentration. Antibody titration curves were plotted using GraphPad Prism7 (GraphPad Software).
Compound 9a was then evaluated in vivo to confirm its capacity to induce a Th1 antigen-specific response using a delayed-type hypersensitivity immunisation protocol. To this end, four groups of C57BL/6 mice were immunised by subcutaneous injection with oil-in-water emulsions containing either OVA only, OVA+C18dMeBrar (9a), OVA+TDB, or no OVA. After seven days the mice were challenged with OVA (100 μg per footpad) and after a further seven days, the splenocytes were isolated and restimulated with OVA at three concentrations (10, 30, or 100 μg/mL). The immune response was measured by determining footpad swelling, production of IFN-γ and IL-17 (FIG. 7b), T cell proliferation (FIG. 4a), and antibody titres (FIG. 4c). […] Accordingly, the ability of C18dMeBrar (9a) to lead to an enhanced Th1 immune response was even more striking. This overall immune profile was also reflected in the antibody production by immunised mice. […] A high IgG2c:IgG1 ratio is commonly associated with Th1 responses and a lower ratio is associated with Th2 responses. The production of IgG2c in mice immunised with C18dMeBrar increased three-fold as compared to OVA alone, providing evidence that C18dMeBrar induces a Th1-biased immune response.

`O=C(OCC1O[C@H](O[C@H]2OC(COC(=O)c3ccc(O)cc3O)[C@@H](O)C(O)C2O)C(O)C(O)[C@@H]1O)c1ccc(O)cc1O` (stereo partly drawn) [9e, 6,6′-Di-O-(2,4-dihydroxybenzoyl)-α,α′-D-trehalose]: in the assay with wild-type GM-CSF BMDMs, the IL-1β production result was “did not induce the production of any of the cytokines measured”, the IL-6 production result was “did not induce the production of any of the cytokines measured”, the MIP-2 production entry is on record as “did not induce the production of any of the cytokines measured” and the TNF production entry was “did not induce the production of any of the cytokines measured”. Further, on mMincle-Ig, the “binding to mMincle-Ig (ELISA, OD at 450 nm)” value is given as “did not bind hMincle- or mMincle-Ig to any great extent”. At mMincle+FcRγ, the “activation of mMincle NFAT-GFP reporter cells (GFP by flow cytometry)” value is recorded as “did not significantly activate mMincle”. Moreover, on hMincle-Ig, the “binding to hMincle-Ig (ELISA, OD at 450 nm)” value is reported as “did not bind hMincle- or mMincle-Ig to any great extent”.
In the case of `COc1ccc(C(=O)OCC2O[C@H](O[C@H]3OC(COC(=O)c4ccc(OC)cc4O)[C@@H](O)C(O)C3O)C(O)C(O)[C@@H]2O)c(O)c1` (stereo partly drawn) [9d, 6,6′-Di-O-(2-hydroxy-4-methoxybenzoyl)-α,α′-D-trehalose], in the assay on wild-type GM-CSF BMDMs, the IL-1β production entry is “did not induce the production of any of the cytokines measured”, the IL-6 production entry is reported as “did not induce the production of any of the cytokines measured”, the MIP-2 production entry is “did not induce the production of any of the cytokines measured” and the TNF production result is on record as “did not induce the production of any of the cytokines measured”. Further, the “binding to mMincle-Ig (ELISA, OD at 450 nm)” value on mMincle-Ig is “did not bind hMincle- or mMincle-Ig to any great extent”. Moreover, the “binding to hMincle-Ig (ELISA, OD at 450 nm)” value on hMincle-Ig is given as “did not bind hMincle- or mMincle-Ig to any great extent”. Further, the “activation of hMincle NFAT-GFP reporter cells (GFP by flow cytometry)” value on hMincle+FcRγ was “only modest activation of hMincle at a high ligand concentration”.
For `CCCCCCCCCCCCCCCCCCCCCC(=O)OC[C@H]1O[C@H](O[C@H]2O[C@H](COC(=O)CCCCCCCCCCCCCCCCCCCCC)[C@@H](O)[C@H](O)[C@H]2O)[C@H](O)[C@@H](O)[C@@H]1O` [TDB, trehalose dibehenate, reference compound], in the assay on wild-type GM-CSF BMDMs, the IL-1β production entry is recorded as “significant production”, the IL-6 production result is listed as “significant production”, the MIP-2 production entry was “significant production” and the TNF production result is on record as “significant production”. For the same compound, in the assay with C57BL/6 mice (s.c. OVA 200 μg + adjuvant 0.3 μmol, oil-in-water emulsion), the “Th1 immune response / adjuvant activity in vivo” value was “limited efficacy”. Also, in the assay with C57BL/6 mice (s.c. OVA 200 μg + adjuvant 0.3 μmol, OVA challenge 100 μg/footpad), the footpad swelling entry was “neither 9a nor TDB induced any”. Also, the “IL-17 production by splenocytes restimulated with OVA” value in the assay with C57BL/6 mice (s.c. OVA 200 μg + adjuvant 0.3 μmol, restimulation 10, 30 or 100 μg/mL OVA) is “neither 9a nor TDB induced any”. In the assay with C57BL/6 mice (s.c. OVA 200 μg + adjuvant 0.3 μmol, splenocytes restimulated with 10, 30 or 100 μg/mL OVA), the “antigen specific IFN-γ production, all concentrations of OVA” value is “did not lead to a significant increase”. In the assay on C57BL/6 mice (serum, ELISA), the IgG1 antibody production result is recorded as “showed increases”, the IgG2b antibody production result is on record as “showed increases”, the IgG2c antibody production result was “showed increases” and the “production of OVA-specific IgG antibodies” value is “elevated the production of IgG antibodies”.
In the case of “trehalose dimycolate [TDM, reference compound]”, in the assay with wild-type GM-CSF BMDMs, the IL-1β production result was “significant production”, the IL-6 production result is given as “significant production”, the MIP-2 production entry is “significant production” and the TNF production entry is given as “significant production”.
